Reference: patent publication US4847268A, “8-phenylthio-tetrahydroquinolines and anti-allergic use thereof” (Roussel Uclaf, priority 1986, dated 1989)
Where a name gives a salt, the structure may show the parent alone.

The compounds below were run against T1, 5-lipoxygenase (Rattus norvegicus, UniProt P12527) (assay: 5-LIPOX: inhibition of Ca++ ionophore (A23187)-induced release of 5-lipoxygenase products from [14C]-arachidonic acid pre-labelled rat peritoneal neutrophils). Conditions: A23187-induced release of leukotriene D4 and 5-HETE, determined graphically from dose-response curves, read-out: 5-LIPOX: concentration of test compound causing 50% inhibition of control response.
T1 construct: pre-labelled rat peritoneal neutrophils; endogenous in cells; host or cells: rat peritoneal neutrophils
T1 sequence (P12527 1-673): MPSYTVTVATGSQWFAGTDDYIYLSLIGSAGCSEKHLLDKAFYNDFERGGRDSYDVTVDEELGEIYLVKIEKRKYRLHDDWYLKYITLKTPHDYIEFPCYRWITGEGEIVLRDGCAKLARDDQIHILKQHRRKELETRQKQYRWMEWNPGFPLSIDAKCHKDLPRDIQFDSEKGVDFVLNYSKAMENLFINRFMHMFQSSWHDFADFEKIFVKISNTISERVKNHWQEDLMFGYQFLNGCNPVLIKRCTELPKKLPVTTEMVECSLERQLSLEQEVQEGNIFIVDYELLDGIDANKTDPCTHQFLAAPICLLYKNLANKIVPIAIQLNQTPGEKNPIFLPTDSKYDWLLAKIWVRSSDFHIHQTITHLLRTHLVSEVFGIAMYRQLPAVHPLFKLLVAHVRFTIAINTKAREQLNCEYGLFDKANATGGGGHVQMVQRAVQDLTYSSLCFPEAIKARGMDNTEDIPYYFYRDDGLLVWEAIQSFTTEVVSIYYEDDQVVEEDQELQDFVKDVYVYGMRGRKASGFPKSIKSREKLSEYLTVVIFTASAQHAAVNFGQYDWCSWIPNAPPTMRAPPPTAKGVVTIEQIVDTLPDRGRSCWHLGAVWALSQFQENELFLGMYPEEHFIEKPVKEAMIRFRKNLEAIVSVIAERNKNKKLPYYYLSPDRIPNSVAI
Assay type: cell-based
From the text: A. 5-LIPOX Inhibition of the Ca^++ ionophore (A23187)-induced release of 5-lipoxygenase products ([…] and 5-HETE) from [^14 C]-arachidonic acid pre-labelled rat peritoneal neutrophils. Assayed by a modification of the method reported by Ahnfelt-Ronne et al [Biochemical Pharmacology, Vol. 31, No. 16, pp. 2619-2624 (1982)]. The data presented are micromolar concentrations of test compound causing 50% inhibition of control response determined graphically from dose-response curves.

| SMILES | IC50 [µM] |
| --- | --- |
| c1cnc2c(c1)CCCC2Sc1cccc2ccccc12 (stereo not shown) [Example 6, 8-(1-naphthylthio)-5,6,7,8-tetrahydroquinoline] | 1.7 |
| CC(=O)Oc1ccc(SC2CCCc3cccnc32)cc1 (stereo not shown) [Example 19, 8-(4-acetoxyphenylthio)-5,6,7,8-tetrahydroquinoline hydrochloride] | 45 |
| CCCCOc1ccc(SC2CCCc3cccnc32)cc1 (stereo not shown) [Example 17, 8-(4-n-Butoxyphenylthio)-5,6,7,8-tetrahydroquinoline hydrochloride] | 3.7 |
| COC(=O)c1ccc(SC2CCCc3cccnc32)cc1 (stereo not shown) [Example 20, Methyl 4-(5,6,7,8-tetrahydroquinoline-8-ylthio)-benzoate hydrochloride] | 18.6 |
| CCCCCC(O)c1cccc(SC2CCCc3cccnc32)c1 (stereo not shown) [Example 11, 8[3-(1-hydroxyhexyl)-phenylthio]-5,6,7,8-tetrahydroquinoline] | 5.6 |
| c1cnc2c(c1)CCCC2Sc1ccc2ccccc2c1 (stereo not shown) [Example 9, 8-(2-naphthylthio)-5,6,7,8-tetrahydroquinoline hydrochloride] | 2.3 |
| CCCCc1ccc(SC2CCCc3cccnc32)cc1 (stereo not shown) [Example 10, 8-(4-n-butylphenylthio)-5,6,7,8-tetrahydroquinoline hydrochloride] | 1.9 |
| CCOc1ccc(SC2CCCc3cccnc32)cc1 (stereo not shown) [Example 18, 8-(4-ethoxyphenylthio)-5,6,7,8-tetrahydroquinoline hydrochloride] | 11.2 |

More lines, now with the values ahead:

| IC50 [µM] | SMILES |
| --- | --- |
| 12.6 | O=[N+]([O-])c1ccc(SC2CCCc3cccnc32)cc1 (stereo not shown) [Example 4, 8-(4-nitrophenylthio)-5,6,7,8-tetrahydroquinoline hydrochloride] |
| 26 | NS(=O)(=O)c1ccc(SC2CCCc3cccnc32)cc1 (stereo not shown) [Example 12, 4-(5,6,7,8-tetrahydroquinoline-8-ylthio)-benzenesulfonamide] |
| 4.2 | Clc1ccc(SC2CCCc3cccnc32)cc1 (stereo not shown) [Example 1, 8-(4-chlorophenylthio)-5,6,7,8-tetrahydroquinoline hydrochloride] |
| 31 | N#Cc1ccc(SC2CCCc3cccnc32)cc1 (stereo not shown) [Example 2, 4-(5,6,7,8-tetrahydroquinoline-8-ylthio)-benzonitrile] |
| > 100 | O=C(O)c1ccc(SC2CCCc3cccnc32)cc1 (stereo not shown) [Example 16, 4-(5,6,7,8-tetrahydroquinoline-8-ylthio)-benzoic acid] |
| 3 | Cc1ccc(SC2CCCc3cccnc32)cc1 (stereo not shown) [Example 5, 8-(4-methylphenylthio)-5,6,7,8-tetrahydroquinoline hydrochloride] |
| 4 | CCc1ccc(SC2CCCc3cccnc32)cc1 (stereo not shown) [Example 15, 8-(4-ethylphenylthio)-5,6,7,8-tetrahydroquinoline hydrochloride] |
| 25 | Nc1ccc(SC2CCCc3cccnc32)cc1 (stereo not shown) [Example 7, 8-(4-aminophenylthio)-5,6,7,8-tetrahydroquinoline] |
| 13.2 | COc1ccc(SC2CCCc3cccnc32)cc1 (stereo not shown) [Example 14, 8-(4-methoxyphenylthio)-5,6,7,8-tetrahydroquinoline hydrochloride] |
| 14.1 | Oc1ccc(SC2CCCc3cccnc32)cc1 (stereo not shown) [Example 8, 8-(4-hydroxyphenylthio)-5,6,7,8-tetrahydroquinoline] |
| 33 | O=[N+]([O-])c1cc(SC2CCCc3cccnc32)ccc1O (stereo not shown) [Example 21, 8-(4-hydroxy-3-nitrophenylthio)-5,6,7,8-tetrahydroquinoline] |

These compounds were tested against T2, LTD4 receptor (Cavia porcellus, UniProt Q2NNR5) (assay: LTD4 RECEPTOR: inhibition of specific binding of [3H]-LTD4 to a membrane preparation of guinea-pig lung tissue). Conditions: [3H]-LTD4, guinea-pig lung membrane preparation; determined graphically from dose-response curves; read-out: LTD4 receptor: concentration of test compound causing 50% inhibition of specific binding.
T2 construct: a membrane preparation of guinea-pig lung tissue; from tissue; host or cells: guinea-pig lung membranes
T2 sequence (Q2NNR5 1-340): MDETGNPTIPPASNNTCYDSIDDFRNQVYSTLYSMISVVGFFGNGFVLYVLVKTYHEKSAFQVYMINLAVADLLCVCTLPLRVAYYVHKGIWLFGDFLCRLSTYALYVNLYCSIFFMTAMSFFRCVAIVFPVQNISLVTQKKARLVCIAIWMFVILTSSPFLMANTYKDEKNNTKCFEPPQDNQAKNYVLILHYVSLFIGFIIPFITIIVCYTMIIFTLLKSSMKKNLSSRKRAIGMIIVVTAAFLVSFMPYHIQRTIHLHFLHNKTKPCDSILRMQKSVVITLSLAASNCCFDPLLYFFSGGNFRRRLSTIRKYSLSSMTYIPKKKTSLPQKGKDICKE
From the text: B. LTD4 RECEPTOR Inhibition of the specific binding of [^3 H]-LTD4 to a membrane preparation of guinea-pig lung tissue assayed by a modification of a method reported by Bruns et al [Life Sciences, Vol. 33, pp. 645-653 (1983)]. The data presented are micromolar concentrations of test compound causing 50% inhibition of specific binding determined graphically from dose-response curves.

| IC50 [µM] | SMILES |
| --- | --- |
| 52.5 | c1cnc2c(c1)CCCC2Sc1cccc2ccccc12 (stereo not shown) [Example 6, 8-(1-naphthylthio)-5,6,7,8-tetrahydroquinoline] |
| 26.3 | O=[N+]([O-])c1ccc(SC2CCCc3cccnc32)cc1 (stereo not shown) [Example 4, 8-(4-nitrophenylthio)-5,6,7,8-tetrahydroquinoline hydrochloride] |
| 22.4 | Clc1ccc(SC2CCCc3cccnc32)cc1 (stereo not shown) [Example 1, 8-(4-chlorophenylthio)-5,6,7,8-tetrahydroquinoline hydrochloride] |
| 23.4 | Cc1ccc(SC2CCCc3cccnc32)cc1 (stereo not shown) [Example 5, 8-(4-methylphenylthio)-5,6,7,8-tetrahydroquinoline hydrochloride] |
| > 100 | Nc1ccc(SC2CCCc3cccnc32)cc1 (stereo not shown) [Example 7, 8-(4-aminophenylthio)-5,6,7,8-tetrahydroquinoline] |
| 16.6 | COc1ccc(SC2CCCc3cccnc32)cc1 (stereo not shown) [Example 14, 8-(4-methoxyphenylthio)-5,6,7,8-tetrahydroquinoline hydrochloride] |
